The values below come from patent US10844017B2, “Biaryl compound, preparation method and use thereof” (FUDAN UNIVERSITY, priority 2017, dated 2020).

In assay [1] the target is T1, RORγ receptor (B-RORγ LBD / Bioin-SRC1) (Homo sapiens, UniProt P51449).
T1 construct: 40 nM B-RORγ LBD solution
T1 sequence (P51449 269-508 limits assumed): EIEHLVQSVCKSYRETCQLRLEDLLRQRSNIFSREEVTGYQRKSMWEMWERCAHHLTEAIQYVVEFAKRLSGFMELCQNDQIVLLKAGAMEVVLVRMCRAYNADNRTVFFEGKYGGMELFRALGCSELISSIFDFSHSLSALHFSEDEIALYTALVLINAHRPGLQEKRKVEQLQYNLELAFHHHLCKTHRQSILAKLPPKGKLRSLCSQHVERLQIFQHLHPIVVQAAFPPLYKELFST
T1 sequence (Q15788 676-700 partner limits assumed): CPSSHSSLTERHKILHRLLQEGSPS
In words: Determination of agonistic activities on RORγ receptors in vitro (dual FRET). The class given is biochemical. Conditions: average of at least two independent experiments. The procedure: Determination of Agonistic Activities of Compounds on RORγ Receptors In Vitro The agonistic activities of compounds described herein on RORγ receptor were determined by dual fluorescence resonance energy transfer (dual FRET) experiments. The agonistic activity was expressed by half maximum effect concentration (EC50).
1) Preparation of RORγ Assay Buffer
100 mL of buffer solution was well mixed with […] DTT for use.
2) Preparation of Solutions of Compounds
3) Preparation of protein mixtures a) 40 nM B-RORγ LBD solution was mixed well with 20 nM SA-APC solution and incubated for 15 minutes at room temperature. Then the resulting mixture was further mixed well with 400 nM Biotin and incubated for another 10 minutes at room temperature. […]
b) 40 nM Bioin-SRC1 solution was mixed well with 10 nM SA-eu solution and was incubated for 15 minutes at room temperature. Then the resulting mixture was further mixed well with 200 nM Biotin and was incubated for another 10 minutes at room temperature. […]
d) A mixture (25 μL) of B-RORγ LBD/SA-APC and Bioin-SRC1/SA-eu together with a test compound was added to one of the wells of a 384-well plate, and then the plate was centrifuged for one minute at 1000 rpm, and incubated at room temperature for one hour. The data were read on an Envision microplate detector and EC50 values were calculated.

Assay [2] has as its system Mouse lymphoma EL4 cells transfected with RORγt plasmid. In words: Determination of the activation rate on mouse lymphoma EL4 (IL-17 generation). Conditions: compound at 2 μM, 24 hours, PMA/ionomycin stimulation 4 hours, flow cytometry, read-out: +act % (activation of IL-17 generated by EL4 cells). The class given is cell-based. The protocol:
Determination of the Activation Rate on Mouse Lymphoma EL4
Mouse lymphoma EL4 cells transfected with RORγt plasmid were cultured at 37° C. under an atmosphere with 5% CO2, with a test compound added simultaneously. After 24 hours, the generation efficiency of IL-17A was analyzed. Before collection of cells, PMA at 50 ng/mL and ionomycin at 500 ng/mL were added for stimulation for 4 hours. The proportion of IL-17 was detected by intracellular staining and flow cytometry. […] The activation rate of IL-17 generated by EL4 cells for the compound was measured at a concentration of 2 μM.

Broadly, the EC50 is the concentration at which the effect is half-maximal.

The compound `CC(C)Cc1ccc(-c2c(Cl)cc(NC(=O)C3CCCCC3)cc2Cl)cc1C#N` [Example 2, N-(2,6-Dichloro-3′-cyano-4′-isobutyl-[1,1′-biphenyl]-4-yl)cyclohexanecarboxamide] registered an EC50 in assay [1] of 10 to 50 nM. Moreover, the activation at 2 µM in assay [2] fell in the range of 20 to 50%.
Take `CC(C)Cc1ccc(-c2c(Cl)cc(NC(=O)CC3CCCCC3)cc2Cl)cc1C#N` [Example 5, (2-Cyclohexyl-N-(2,6-dichloro-3′-cyano-4′-isobutyl-[1,1′-biphenyl]-4-yl)acetamide)]: the EC50 in assay [1] was in the range of 10 to 50 nM. Further, the activation at 2 µM in assay [2] was less than 20%.
In the same order, the values of `CC(C)Cc1ccc(-c2c(Cl)cc(NC(=O)CC3CCOCC3)cc2Cl)cc1C#N` [Example 6, N-(2,6-Dichloro-3′-cyano-4′-isobutyl-[1,1′-biphenyl]-4-yl)-2-(tetrahydro-2H-pyran-4-yl) acetamide] are 10 to 50 nM and 20 to 50%.
For `CC(C)Cc1ccc(-c2c(Cl)cc(NC(=O)Cc3ccn(C)n3)cc2Cl)cc1C#N` [Example 9A, N-(2,6-Dichloro-3′-cyano-4′-isobutyl-[1,1′-biphenyl]-4-yl)-2-(1-methyl-1H-pyrazol-3-yl)acetamide], in that order: 10 to 50 nM and less than 20%.
As to `CCS(=O)(=O)c1ccc(CC(=O)Nc2cc(Cl)c(-c3ccc(CC(C)C)c(F)c3)c(Cl)c2)cc1` [Example 27, N-(2,6-Dichloro-3′-fluoro-4′-isobutyl-[1,1′-biphenyl]-4-yl)-2-(4-(ethylsulfonyl)phenyl)acetamide], the EC50 in assay [1] lay within 10 to 50 nM.
Still for that read-out and setting: the figure for `CCS(=O)(=O)c1ccc(CC(=O)Nc2cc(Cl)c(-c3ccc(CC(C)C)cc3C#N)c(Cl)c2)cc1` [Example 28, N-(2,6-dichloro-2′-cyano-4′-isobutyl-[1,1′-biphenyl]-4-yl)-2-(4-(ethylsulfonyl)phenyl)acetamide] is 10 to 50 nM.
The same measure, in the same setting: the figure for `CCS(=O)(=O)c1ccc(CC(=O)Nc2ccc(-c3ccc(CC(C)C)cc3C(F)(F)F)c(Cl)c2)cc1` [Example 29, N-(2-chloro-4′-isobutyl-2′-(trifluoromethyl)-[1,1′-biphenyl]-4-yl)-2-(4-(ethylsulfonyl)phenyl)acetamide] is 10 to 50 nM.
The same measure, in the same setting: in the case of `CCS(=O)(=O)c1ccc(CC(=O)Nc2ccc(-c3ccc(CC(C)C)cc3OC(F)(F)F)c(Cl)c2)cc1` [Example 30, N-(2-Chloro-4′-isobutyl-2′-(trifluoromethoxy)-[1,1′-biphenyl]-4-yl)-2-(4-(ethylsulfonyl)phenyl)acetamide] it was 10 to 50 nM.
In assay [1], `CCS(=O)(=O)c1ccc(CC(=O)Nc2ccc(-c3ccc(CC(C)C)c(C#N)c3)c(Cl)c2)cc1` [Example 31, N-(2-Chloro-3′-cyano-4′-isobutyl-[1,1′-biphenyl]-4-yl)-2-(4-(ethylsulfonyl)phenyl)acetamide] gave an EC50 of less than 10 nM.
With `CCS(=O)(=O)c1ccc(CC(=O)Nc2cc(Cl)c(-c3ccc(CN(C)C)c(C#N)c3)c(Cl)c2)cc1` [Example 35, N-(2,6-Dichloro-3′-cyano-4′-((dimethylamino)methyl)-[1,1′-biphenyl]-4-yl)-2-(4-(ethylsulfonyl)phenyl)acetamide], in assay [2], the activation at 2 µM was more than 50%.
As to `CCS(=O)(=O)c1ccc(CC(=O)Nc2cc(Cl)c(-c3ccc(CN4CCC4)c(C#N)c3)c(Cl)c2)cc1` [Example 38, N-(4′-(Azetidin-1-ylmethyl)-2,6-dichloro-3′-cyano-[1,1′-biphenyl]-4-yl)-2-(4-(ethylsulfonyl)phenyl)acetamide], the EC50 in assay [1] was more than 1000 nM.
Still for that read-out and setting: in the case of `CCS(=O)(=O)c1ccc(CC(=O)Nc2cc(Cl)c(-c3ccc(CN4CCCC4)c(C#N)c3)c(Cl)c2)cc1` [Example 39, N-(2,6-Dichloro-3′-cyano-4′-(pyrrolidin-1-ylmethyl)-[1,1′-biphenyl]-4-yl)-2-(4-(ethylsulfonyl)phenyl)acetamide] it was 10 to 50 nM.
In the case of `CCS(=O)(=O)c1ccc(CC(=O)Nc2cc(Cl)c(-c3ccc(C=C(C)C)c(C#N)c3)c(Cl)c2)cc1` [Example 40, N-(2,6-Dichloro-3′-cyano-4′-(2-methylprop-1-en-1-yl)-[1,1′-biphenyl]-4-yl)-2-(4-(ethylsulfonyl)phenyl)acetamide], the activation at 2 µM in assay [2] was more than 50%.
`CCS(=O)(=O)c1ccc(CC(=O)Nc2cc(Cl)c(-c3ccc(C=C4CCC4)c(C#N)c3)c(Cl)c2)cc1` [Example 44, N-(2,6-Dichloro-3′-cyano-4′-(cyclobutylidenemethyl)-[1,1′-biphenyl]-4-yl)-2-(4-(ethylsulfonyl)phenyl)acetamide] returned an EC50 in assay [1] of 10 to 50 nM.
On the same count and under the same terms, in the case of `CCS(=O)(=O)c1ccc(CC(=O)Nc2cc(Cl)c(-c3ccc(CC4CCCC4)c(C#N)c3)c(Cl)c2)cc1` [Example 45, N-(2,6-Dichloro-3′-cyano-4′-(cyclopentylmethyl)-[1,1′-biphenyl]-4-yl)-2-(4-(ethylsulfonyl)phenyl)acetamide] it was 10 to 50 nM.
As to `CCS(=O)(=O)c1ccc(CNC(=O)c2cc(Cl)c(-c3ccc(CC(C)C)c(C#N)c3)c(Cl)c2)cc1` [Example 47], the activation at 2 µM in assay [2] was less than 20%.
In assay [1], `CC(C)Cc1ccc(-c2c(Cl)cc(C(=O)NCc3ccc(S(C)(=O)=O)cc3)cc2Cl)cc1C#N` [Example 48, 2,6-Dichloro-3′-cyano-4′-isobutyl-N-(4-(methylsulfonyl)benzyl)-[1,1′-biphenyl]-4-carboxamide] came in with an EC50 of 50 to 100 nM.
Still for that read-out and setting: in the case of `CC(C)Cc1ccc(-c2c(Cl)cc(C(=O)NCc3ccc(S(C)(=O)=O)cn3)cc2Cl)cc1C#N` [Example 50, 2,6-Dichloro-3′-cyano-4′-isobutyl-N-((5-(methylsulfonyl)pyridin-2-yl)methyl)-[1,1′-biphenyl]-4-carboxamide] it was 50 to 100 nM; in that of `CCS(=O)(=O)c1ccc(CNC(=O)c2cc(Cl)c(-c3ccc(CN(C)C)c(C#N)c3)c(Cl)c2)cc1` [Example 51, 2,6-Dichloro-3′-cyano-4′-((dimethylamino)methyl)-N-(4-(ethylsulfonyl)benzyl)-[1,1′-biphenyl]-4-carboxamide], 100 to 500 nM.
The same measure, in the same setting: the figure for `CN(C)Cc1ccc(-c2c(Cl)cc(C(=O)NCc3ccc(S(C)(=O)=O)cc3)cc2Cl)cc1C#N` [Example 52, 2,6-Dichloro-3′-cyano-4′-((dimethylamino)methyl)-N-(4-(methylsulfonyl)benzyl)-[1,1′-biphenyl]-4-carboxamide] is 500 to 1000 nM.
On to `CCS(=O)(=O)c1ccc(CNC(=O)Nc2cc(Cl)c(-c3ccc(CC(C)C)c(C#N)c3)c(Cl)c2)cc1` [Example 53, 1-(2,6-Dichloro-3′-cyano-4′-isobutyl-[1,1′-biphenyl]-4-yl)-3-(4-(ethylsulfonyl)benzyl)urea], for which, in assay [2], the activation at 2 µM lay within 20 to 50%.
In the case of `CC(C)Cc1ccc(-c2c(Cl)cc(NC(=O)NCc3ccc(S(C)(=O)=O)cc3)cc2Cl)cc1C#N` [Example 54, 1-(2,6-Dichloro-3′-cyano-4′-isobutyl-[1,1′-biphenyl]-4-yl)-3-(4-(methylsulfonyl)benzyl)urea], in assay [1], the EC50 lay within 10 to 50 nM.
On the same count and under the same terms, in the case of `CC(C)Cc1ccc(-c2c(Cl)cc(NC(=O)NCc3ccc(S(C)(=O)=O)cn3)cc2Cl)cc1C#N` [Example 56, 1-(2,6-Dichloro-3′-cyano-4′-isobutyl-[1,1′-biphenyl]-4-yl)-3-((5-(methylsulfonyl)pyridin-2-yl)methyl)urea] it was 10 to 50 nM; in that of `CC(C)Cc1ccc(-c2c(Cl)cc(NC(=O)NCc3ccc(CC(=O)O)cc3)cc2Cl)cc1C#N` [Example 57, 2-(4-((3-(2,6-Dichloro-3′-cyano-4′-isobutyl-[1,1′-biphenyl]-4-yl)ureido)methyl)phenyl)acetic acid], 10 to 50 nM.
With `CN(C)Cc1ccc(-c2c(Cl)cc(NC(=O)NCc3ccc(S(C)(=O)=O)cc3)cc2Cl)cc1C#N` [Example 59, 1-(2,6-Dichloro-3′-cyano-4′-((dimethylamino)methyl)-[1,1′-biphenyl]-4-yl)-3-(4-(methylsulfonyl)benzyl)urea], the concentration for a half-maximal effect (EC50) in assay [1] lay within 10 to 50 nM.
In assay [1], `CC(C)Cc1ccc(-c2c(Cl)cc(NCCc3ccc(S(C)(=O)=O)cc3)cc2Cl)cc1C#N` [Example 61, 2′,6′-Dichloro-4-isobutyl-4′-((4-(methylsulfonyl)phenethyl)amino)-[1,1′-biphenyl]-3-carbonitrile] displayed an EC50 of 10 to 50 nM.
On the same count and under the same terms, the figure for `CN(C)Cc1ccc(-c2c(Cl)cc(NCCc3ccc(S(C)(=O)=O)cc3)cc2Cl)cc1C#N` [Example 63, 2′,6′-Dichloro-4-((dimethylamino)methyl)-4′-((4-(methylsulfonyl)phenethyl)amino)-[1,1′-biphenyl]-3-carbonitrile] is less than 10 nM.
